We go through two molecules from paper PMC7677715 (Redox Biology, 2020).

As a reminder, the Kd is a measure of binding affinity in units of concentration. Low values mean tighter binding, high ones weaker binding.

In test [1] the target is T1, α-tocopherol transfer protein (α-TTP) (Homo sapiens, UniProt P49638).
T1 sequence (P49638 1-278): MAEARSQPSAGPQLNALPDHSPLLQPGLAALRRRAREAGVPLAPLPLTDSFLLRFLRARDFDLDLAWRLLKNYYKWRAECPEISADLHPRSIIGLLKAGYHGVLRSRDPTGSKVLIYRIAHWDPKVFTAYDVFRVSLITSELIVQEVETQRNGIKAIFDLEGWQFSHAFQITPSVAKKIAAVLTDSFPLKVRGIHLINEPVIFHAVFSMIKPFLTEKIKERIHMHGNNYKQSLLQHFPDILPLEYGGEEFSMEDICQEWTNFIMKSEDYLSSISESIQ
As to the kind of experiment: FRET ligand transfer to/from liposomes. It counts as binding.

Test [2] addresses T2, γ-TTP (α-tocopherol transfer protein A156L) (Homo sapiens, UniProt P49638, A156L).
T2 sequence (P49638 48-278 A156L): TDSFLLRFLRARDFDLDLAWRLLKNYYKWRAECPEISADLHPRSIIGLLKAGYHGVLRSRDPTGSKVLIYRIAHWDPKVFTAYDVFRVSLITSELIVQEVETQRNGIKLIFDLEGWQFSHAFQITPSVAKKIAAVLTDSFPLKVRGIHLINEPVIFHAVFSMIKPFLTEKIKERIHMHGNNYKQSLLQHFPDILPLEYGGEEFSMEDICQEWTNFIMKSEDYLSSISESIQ
As to the kind of experiment: X-ray crystal structure. It counts as binding.

`Cc1c(O)cc2c(c1C)O[C@](C)(CCC[C@H](C)CCC[C@H](C)CCCC(C)C)CC2` [γ-tocopherol]: the Kp in test [1] was determined as 4.05.

`Cc1c(O)cc2c(c1C)O[C@](C)(CCC[C@H](C)CCC[C@H](C)CCCC(C)C)CC2` [RRR-γ-tocopherol] came in with a Kd in test [2] of 53.8 nM.
